Test results taken from US7367941B2, “Detection and characterization of cholinergic oscillatory control in peripheral microvasculature” (Yale University, priority 2000, dated 2008).

Legend:
Format in all cases: in vivo, human
[1] = test system: forehead microvasculature; assay: Laser Doppler flowmetry of forehead flux, spectral- and time-domain analysis, during phenylephrine challenge and added atropine; conditions: for beat-to-beat % change of forehead flux: p<0.05; for flux at the forehead: mean (SE)
Method: (§1) With IRB approval, 15 healthy nonsmoking male volunteers were instructed to refrain from caffeine and other known vasoactive compounds for at least 24 hours prior and then lie recumbent in a temperature-regulated room (70±1° F.). Surface electrodes were applied for monitoring ECG and respiration, a noninvasive BP cuff was placed over the brachial artery of one arm, and a 22 gauge intravenous catheter was placed in the opposite arm. In the first eight subjects, laser Doppler flowmetry probes (Periflux 2B, Perimed, Sweden) then were applied to the skin via double-stick tape on the forehead and on the finger contralateral to the BP cuff. In the remaining seven subjects, the sites of laser Doppler monitoring were modified and additional monitors were applied (see Example 3).
(§2) The ECG, respiration, and laser Doppler flux were recorded at 250 Hz with a microprocessor-based system which consisted of analog to digital converters, commercially available data acquisition and waveform analysis software (SnapMaster, HEM Data Corp.) and customized software for beat detection. Each R-wave was identified using the recommended combination of derivative plus threshold detection of the fiducial point of the data sampled at 250 Hz (Task Force of the European Society of Cardiology and the North American Society of Pacing and Electrophysiology: Heart rate variability. Standards of measurement, physiological interpretation, and clinical use. Circulation 1996;93:1043-1065). Ectopic beats were to be replaced with an interpolated value, but none were noted. BP was recorded at 2-5 min intervals.
(§3) Following 5 min of baseline (BASE) monitoring during spontaneous ventilation BASESPONT), each subject breathed in synchrony with an audible metronome at a rate of 12 breaths/min (BASEMETRO); each segment lasted 5 min (of which the middle 200 sec were used for subsequent analysis). Subjects then received an infusion of phenylephrine, which was titrated until there was >25% decline in finger flow for 10 min. […] Five minutes of data during this PHENYL phase were recorded during SPONT and during METRO (PHENYLSPONT and PHENYLMETRO). Atropine was then administered IV in 0.25-0.50 mg increments until HR was at least 33% above PHENYL. Measurements during this PH+ATR phase were recorded for 5 min during each of the two respiratory patterns (PH+ATRSPONT and PH+ATRMETRO). The phenylephrine then was discontinued. The values from all subjects were averaged to provide the overall means±standard error (SE) for the sampling periods that are summarized in the FIGS. 5-8.
(§4) The frequency and power of the oscillations of the R-R intervals and laser Doppler flux values (flux) were characterized by frequency-domain analysis. As described in the prior art (Task Force of the European Society of Cardiology, 1996), the “R-R tachogram” and laser Doppler signal were resampled at 5 Hz, a rate more than sufficient to enable identification of oscillatory frequencies within the frequency range of interest (according to Nyquist's theorem and recent Task Force recommendations (see Task Force of the European Society of Cardiology, 1996)). An APSD was then generated for the R-R interval [APSDR-R (msec^2/Hz vs. Hz)], for the laser Doppler signal taken at the forehead [APSDFOREHEAD FLUX (mVolt^2/Hz vs. Hz)], and for the laser Doppler signal taken at the finger [APSDFINGER (mvolt^2/Hz vs. Hz)] in each subject using a traditional (Parzan) window. For each APSD, 200 sec of data were resampled at 5 Hz, providing a spectral resolution of 0.005 Hz (5 cycles per sec/1,000 data points); the mean value of the signal was subtracted from the data to eliminate its influence on the APSD. For purposes of presentation, each pair of adjacent 0.005 Hz bins was summated to provide bins with a width of 0.01 Hz. […]

[2] = test system: R-R intervals of the electrocardiogram; assay: ECG R-R interval variability (APSDR-R, time-domain indices), HR and BP during phenylephrine and added atropine; conditions: for effect on BP and HR (R-R interval): spontaneous and metronome breathing
Method: as §1, §2, §3, §4

finger microvasculature = assay: Laser Doppler flowmetry of finger flux during phenylephrine infusion
Method: as §1, with “In the remaining seven subjects, the sites of laser Doppler monitoring were modified and additional monitors were applied (see Example 3).” left out
The ECG, respiration, and laser Doppler flux were recorded at 250 Hz with a microprocessor-based system which consisted of analog to digital converters, commercially available data acquisition and waveform analysis software (SnapMaster, HEM Data Corp.) and customized software for beat detection. […] BP was recorded at 2-5 min intervals.
Following 5 min of baseline (BASE) monitoring during spontaneous ventilation BASESPONT), each subject breathed in synchrony with an audible metronome at a rate of 12 breaths/min (BASEMETRO); each segment lasted 5 min (of which the middle 200 sec were used for subsequent analysis). […] Five minutes of data during this PHENYL phase were recorded during SPONT and during METRO (PHENYLSPONT and PHENYLMETRO). […]

[3] = test system: forehead flux and R-R oscillations; assay: Cross power spectral density of forehead flux and R-R after normalization to mean; conditions: PHENYL
Method: FIGS. 11A-D are a graphical comparison of normalized data in the time and frequency-domains, in accordance with the present invention. The signals were normalized prior to time and frequency domain analysis, as follows: (1) LDF flow data was resampled at 5 Hz (data from FIG. 5); (2) mean flow data for the entire study segment (i.e., 5.33522) was determined; and (3) the normalized values were obtained by dividing each resampled value by the corresponding mean value for the study segment. Normalization facilitates visual inspection as well as time-domain and spectral-domain comparisons of the oscillatory signal(s) to values under different circumstances (e.g. baseline vs. challenge state) or to the values of another parameter. Although the values in FIG. 11 were normalized to the mean, it may be preferable in some settings to normalize to the median since this is less affected by outliers. […] The CPSD is calculated by determining the normalized power of a signal from the instantaneous amplitude-spectrum using the following equation: Gab=ave(SaSb*)/df where Gab=instantaneous amplitude spectral density of the sampling channels; Sa=instantaneous amplitude spectrum of channel a; Sb*=complex conjugate of Sb; df=frequency resolution. […]

[4] = test system: forehead microvasculature; assay: Laser Doppler flowmetry of forehead flux, spectral- and time-domain analysis, during phenylephrine challenge and added atropine

In the case of `CN1[C@@H]2CC[C@H]1C[C@@H](OC(=O)C(CO)c1ccccc1)C2` (some centres unmarked) [atropine], the “effect on maxbin power of APSDFOREHEADFLUX” value ([1]; atropine IV added to phenylephrine infusion (PH+ATR), METRO, p=NS vs BASE) was “reduced power in the maxbin to near-BASE”, the “effect on phenylephrine-induced HF forehead oscillatory signal” value ([1]; atropine added to phenylephrine) was “nearly eliminated” and the “effect on power in the max bin of APSDR-R” value ([2]; atropine added to phenylephrine, SPONT and METRO) was “decrease significantly below BASE values”. For the same compound, the “effect on BP and HR (R-R interval)” value [2] was “exacerbated the increase in BP and reversed the prolongation of the R-R interval”.
`CNC[C@H](O)c1cccc(O)c1` [phenylephrine] was tested, and the “Power/bin of the APSDFOREHEADFLUX” value ([1]; METRO, PHENYL, BASE 1.3(0.5), p=0.0005) was 6.5(2.2) mvolt^2/Hz, the “beat-to-beat % change of forehead flux” value ([1]; METRO, PHENYL, BASE 4.9 (1.1)%) was 11.9 (2.3) % and the “Maxbin power of APSDFOREHEADFLUX” value ([1]; METRO, PHENYL, BASE 10.2(5.5), p=0.0003) was 101.7(39.7) mvolt^2/Hz. For the same compound, the “normalized maxbin power of APSDFOREHEADFLUX, % of average power/bin at BASE” value ([1]; PHENYLMETRO) was 7,304(1,630) %, the “flux at the forehead” value ([1]; PHENYLMETRO, p>0.4 vs BASE 2.1 (0.5)) was 2.3 (0.6) volts and the “frequency of atropine-sensitive peak in APSDFOREHEADFLUX” value ([1]; PHENYLSPONT) was 0.14±0.02 Hz. For the same compound, the “normalized maxbin power of APSDFOREHEADFLUX, % of average power/bin at BASE” value ([1]; PHENYLSPONT) was 8,061(4,550) %, the “flux at the forehead” value ([1]; PHENYLSPONT, p>0.3 vs BASE 2.1 (0.5)) was 1.5 (0.6) volts and the “beat-to-beat % change of forehead flux” value ([1]; SPONT, PHENYL, BASE 3.4 (0.3)%) was 10.7 (2.2) %. The “frequency of maxbin / oscillatory peak in APSDFOREHEADFLUX” value ([1]; phenylephrine infusion, METRO (0.20 Hz breathing)) was 0.14±0.02 Hz, the “atropine-sensitive oscillations in the finger” value (finger microvasculature; phenylephrine infusion) was “did not induce atropine-sensitive oscillations in the finger” and the Finger flux decline (finger microvasculature; phenylephrine infusion 0.4-0.6 μg/kg/min, both METRO and SPONT, p<0.05) was “approximately 50%”. For the same compound, the “power/bin for each of the 26 bins in the APSDR-R” value ([2]; METRO, PHENYL, BASE 475.4 (111.7)) was 393.8 (100.9) msec^2/Hz, the “normalized power of the max bin (0.2 Hz) of APSDR-R” value ([2]; METRO, PHENYL, BASE 799.7 (138.2)%) was 1050.0 (205.8) % and the “power of the max bin of the RF band of APSDR-R” value ([2]; METRO, PHENYL, BASE 4,354 (1556.0)) was 4060.2 (996.2) msec^2/Hz. For the same compound, the “beat-to-beat % change of R-R” value ([2]; metronome breathing, PHENYL, BASE 4.3 (0.6)%, p=0.2) was 5.6 (0.7) %, the “effect on BP and HR (R-R interval)” value [2] was “increase in BP and slowing of HR” and the “beat-to-beat % change of R-R” value ([2]; spontaneous breathing, PHENYL, BASE 3.2 (0.4)%, p=ns) was 3.7 (0.4) %. For the same compound, the “degree to which maxbin in IF band of CPSDFLUX&R-R reflected power in maxbin of APSDFOREHEADFLUX/mean” value ([3]; BASE 32.3±10.7%, p=0.004) was 7.0±1.8%, the “relative degree to which maxbin in IF band of APSDR-R/mean reflected power in maxbin of CPSDFLUX&R-R” value ([3]; BASE 33.6±11.0%, p=0.002) was 7.3±1.8% and the “maxbin frequency of the APSDFOREHEAD FLUX” value ([4]; one subject, phenylephrine infusion, continuous intra-arterial monitoring) was 0.13 Hz. The “frequency at which forehead oscillations increased” value ([4]; two subjects, phenylephrine bolus) was “approximately 0.13 Hz”.
